According to ChEMBL document CHEMBL1201862, “PubChem BioAssay data set” (2004):
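Test compounds were applied to cells in 96-well plates for 48 hours at 5 doses. At the GI50, growth is halved.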 The source made the active and inactive calls. Cut-off read from the data, not from the text of the source: active = GI50 up to about 1.1 µM and inactive = higher.

Columns and labels:
Assay in all cases: NCI-60 cell line screen, 48 h
786-0 = tested on: 786-0
A498 = tested on: A498
A549 = tested on: A549
ACHN = tested on: ACHN
BT-549 = tested on: BT-549
CAKI-1 = tested on: CAKI-1
CCRF-CEM = tested on: CCRF-CEM
COLO 205 = tested on: COLO 205
DU-145 = tested on: DU-145
EKVX = tested on: EKVX
HCC 2998 = tested on: HCC 2998
HCT-116 = tested on: HCT-116
HCT-15 = tested on: HCT-15
HL-60 = tested on: HL-60
HOP-62 = tested on: HOP-62
HOP-92 = tested on: HOP-92
HT-29 = tested on: HT-29
Hs-578T = tested on: Hs-578T
IGROV-1 = tested on: IGROV-1
K562 = tested on: K562
KM12 = tested on: KM12
M14 = tested on: M14
MCF7 = tested on: MCF7
MDA-MB-231 = tested on: MDA-MB-231
MDA-MB-435 = tested on: MDA-MB-435
MOLT-4 = tested on: MOLT-4
Malme-3M = tested on: Malme-3M
NCI-H226 = tested on: NCI-H226
NCI-H23 = tested on: NCI-H23
NCI-H460 = tested on: NCI-H460
NCI-H522 = tested on: NCI-H522
NCI/ADR-RES = tested on: NCI/ADR-RES
OVCAR-3 = tested on: OVCAR-3
OVCAR-4 = tested on: OVCAR-4
OVCAR-5 = tested on: OVCAR-5
OVCAR-8 = tested on: OVCAR-8
PC-3 = tested on: PC-3
RPMI-8226 = tested on: RPMI-8226
SF-268 = tested on: SF-268
SF-295 = tested on: SF-295
SF-539 = tested on: SF-539
SK-MEL-28 = tested on: SK-MEL-28
SK-MEL-2 = tested on: SK-MEL-2
SK-MEL-5 = tested on: SK-MEL-5
SK-OV-3 = tested on: SK-OV-3
SN12C = tested on: SN12C
SNB-19 = tested on: SNB-19
SNB-75 = tested on: SNB-75
SW-620 = tested on: SW-620
T47D = tested on: T47D
TK-10 = tested on: TK-10
U-251 = tested on: U-251
UACC-257 = tested on: UACC-257
UACC-62 = tested on: UACC-62
UO-31 = tested on: UO-31
LOX IMVI = tested on: LOX IMVI
RXF 393 = tested on: RXF 393
SR = tested on: SR

SMILES: CO[C@]12C[C@@H](CNC(=O)c3cc(Br)c[nH]3)O[C@H]1NC(=O)N2
- GI50 (786-0): > 100 µM (inactive)
- GI50 (A498): > 100 µM (inactive)
- GI50 (A549): > 100 µM (inactive)
- GI50 (ACHN): > 100 µM (inactive)
- GI50 (BT-549): > 100 µM (inactive)
- GI50 (CAKI-1): > 100 µM (inactive)
- GI50 (CCRF-CEM): > 100 µM (inactive)
- GI50 (COLO 205): > 100 µM (inactive)
- GI50 (DU-145): > 100 µM (inactive)
- GI50 (EKVX): > 100 µM (inactive)
- GI50 (HCC 2998): > 100 µM (inactive)
- GI50 (HCT-116): > 100 µM (inactive)
- GI50 (HCT-15): > 100 µM
- GI50 (HL-60): > 100 µM (inactive)
- GI50 (HOP-62): > 100 µM (inactive)
- GI50 (HOP-92): > 100 µM (inactive)
- GI50 (HT-29): > 100 µM (inactive)
- GI50 (Hs-578T): > 100 µM (inactive)
- GI50 (IGROV-1): > 100 µM (inactive)
- GI50 (K562): > 100 µM (inactive)
- GI50 (KM12): > 100 µM (inactive)
- GI50 (M14): > 100 µM (inactive)
- GI50 (MCF7): > 100 µM (inactive)
- GI50 (MDA-MB-231): > 100 µM (inactive)
- GI50 (MDA-MB-435): > 100 µM (inactive)
- GI50 (MOLT-4): > 100 µM (inactive)
- GI50 (Malme-3M): > 100 µM (inactive)
- GI50 (NCI-H226): > 100 µM (inactive)
- GI50 (NCI-H23): > 100 µM (inactive)
- GI50 (NCI-H460): > 100 µM (inactive)
- GI50 (NCI-H522): > 100 µM (inactive)
- GI50 (NCI/ADR-RES): > 100 µM (inactive)
- GI50 (OVCAR-3): > 100 µM (inactive)
- GI50 (OVCAR-4): > 100 µM (inactive)
- GI50 (OVCAR-5): > 100 µM (inactive)
- GI50 (OVCAR-8): > 100 µM (inactive)
- GI50 (PC-3): > 100 µM (inactive)
- GI50 (RPMI-8226): > 100 µM (inactive)
- GI50 (SF-268): > 100 µM (inactive)
- GI50 (SF-295): > 100 µM (inactive)
- GI50 (SF-539): > 100 µM (inactive)
- GI50 (SK-MEL-28): > 100 µM (inactive)
- GI50 (SK-MEL-2): > 100 µM (inactive)
- GI50 (SK-MEL-5): > 100 µM (inactive)
- GI50 (SK-OV-3): > 100 µM (inactive)
- GI50 (SN12C): > 100 µM (inactive)
- GI50 (SNB-19): > 100 µM (inactive)
- GI50 (SNB-75): > 100 µM (inactive)
- GI50 (SW-620): > 100 µM (inactive)
- GI50 (T47D): > 100 µM (inactive)
- GI50 (TK-10): > 100 µM (inactive)
- GI50 (U-251): > 100 µM (inactive)
- GI50 (UACC-257): > 100 µM (inactive)
- GI50 (UACC-62): > 100 µM (inactive)
- GI50 (UO-31): > 100 µM (inactive)

SMILES: COc1cc2c(/C=C3/C(=O)Nc4ccc(Cl)cc43)c(Cl)[nH]c2cc1C
- GI50 (786-0): 0.731 µM (active)
- GI50 (A498): 10.6 µM (inactive)
- GI50 (A549): 0.711 µM (active)
- GI50 (ACHN): 0.587 µM (active)
- GI50 (BT-549): 0.181 µM (active)
- GI50 (CAKI-1): 0.39 µM (active)
- GI50 (CCRF-CEM): 0.332 µM (active)
- GI50 (COLO 205): 0.352 µM (active)
- GI50 (DU-145): 1.36 µM (inactive)
- GI50 (HCT-116): 0.794 µM (active)
- GI50 (HCT-15): 0.449 µM
- GI50 (HL-60): 0.366 µM (active)
- GI50 (HOP-62): 0.439 µM (active)
- GI50 (HOP-92): 10.6 µM (inactive)
- GI50 (HT-29): 0.544 µM (active)
- GI50 (Hs-578T): 0.327 µM (active)
- GI50 (IGROV-1): 0.368 µM (active)
- GI50 (K562): 0.394 µM (active)
- GI50 (KM12): 0.416 µM (active)
- GI50 (LOX IMVI): 0.738 µM (active)
- GI50 (M14): 0.962 µM (active)
- GI50 (MCF7): 0.489 µM (active)
- GI50 (MDA-MB-231): 0.74 µM (active)
- GI50 (MDA-MB-435): 0.201 µM (active)
- GI50 (MOLT-4): 0.294 µM (active)
- GI50 (Malme-3M): 0.82 µM (active)
- GI50 (NCI-H226): 1.1 µM (active)
- GI50 (NCI-H23): 0.916 µM (active)
- GI50 (NCI-H460): 0.524 µM (active)
- GI50 (NCI-H522): 2.16 µM (inactive)
- GI50 (NCI/ADR-RES): 0.662 µM (active)
- GI50 (OVCAR-3): 0.356 µM (active)
- GI50 (OVCAR-4): 0.818 µM (active)
- GI50 (OVCAR-5): 3.27 µM (inactive)
- GI50 (OVCAR-8): 1.73 µM (inactive)
- GI50 (PC-3): 0.505 µM (active)
- GI50 (RPMI-8226): 0.91 µM (active)
- GI50 (RXF 393): 0.375 µM (active)
- GI50 (SF-268): 1.03 µM (active)
- GI50 (SF-295): 0.356 µM (active)
- GI50 (SF-539): 0.232 µM (active)
- GI50 (SK-MEL-28): 0.26 µM (active)
- GI50 (SK-MEL-2): 0.966 µM (active)
- GI50 (SK-MEL-5): 0.592 µM (active)
- GI50 (SK-OV-3): 0.284 µM (active)
- GI50 (SN12C): 0.325 µM (active)
- GI50 (SNB-19): 0.408 µM (active)
- GI50 (SNB-75): 0.215 µM (active)
- GI50 (SR): 0.32 µM (active)
- GI50 (SW-620): 0.596 µM (active)
- GI50 (T47D): 4.39 µM (inactive)
- GI50 (TK-10): 1.05 µM (active)
- GI50 (U-251): 0.394 µM (active)
- GI50 (UACC-257): 0.553 µM (active)
- GI50 (UACC-62): 0.288 µM (active)
- GI50 (UO-31): 1.34 µM (inactive)

SMILES: CC(=O)OC1=C(c2ccccc2)S(=O)(=O)c2ccccc21
- GI50 (786-0): > 100 µM (inactive)
- GI50 (A498): > 100 µM (inactive)
- GI50 (A549): > 100 µM (inactive)
- GI50 (ACHN): > 100 µM (inactive)
- GI50 (BT-549): > 100 µM (inactive)
- GI50 (CAKI-1): > 100 µM (inactive)
- GI50 (CCRF-CEM): 96.4 µM (inactive)
- GI50 (COLO 205): > 100 µM (inactive)
- GI50 (DU-145): > 100 µM (inactive)
- GI50 (EKVX): > 100 µM (inactive)
- GI50 (HCC 2998): > 100 µM (inactive)
- GI50 (HCT-116): > 100 µM (inactive)
- GI50 (HCT-15): > 100 µM
- GI50 (HL-60): > 100 µM (inactive)
- GI50 (HOP-62): > 100 µM (inactive)
- GI50 (HOP-92): > 100 µM (inactive)
- GI50 (HT-29): > 100 µM (inactive)
- GI50 (Hs-578T): > 100 µM (inactive)
- GI50 (IGROV-1): > 100 µM (inactive)
- GI50 (K562): > 100 µM (inactive)
- GI50 (KM12): > 100 µM (inactive)
- GI50 (LOX IMVI): > 100 µM (inactive)
- GI50 (M14): > 100 µM (inactive)
- GI50 (MCF7): > 100 µM (inactive)
- GI50 (MDA-MB-231): > 100 µM (inactive)
- GI50 (MDA-MB-435): > 100 µM (inactive)
- GI50 (MOLT-4): > 100 µM (inactive)
- GI50 (Malme-3M): > 100 µM (inactive)
- GI50 (NCI-H226): > 100 µM (inactive)
- GI50 (NCI-H23): > 100 µM (inactive)
- GI50 (NCI-H460): > 100 µM (inactive)
- GI50 (NCI-H522): > 100 µM (inactive)
- GI50 (NCI/ADR-RES): > 100 µM (inactive)
- GI50 (OVCAR-3): > 100 µM (inactive)
- GI50 (OVCAR-4): > 100 µM (inactive)
- GI50 (OVCAR-5): > 100 µM (inactive)
- GI50 (OVCAR-8): > 100 µM (inactive)
- GI50 (PC-3): > 100 µM (inactive)
- GI50 (RPMI-8226): > 100 µM (inactive)
- GI50 (RXF 393): 64 µM (inactive)
- GI50 (SF-268): > 100 µM (inactive)
- GI50 (SF-295): > 100 µM (inactive)
- GI50 (SF-539): > 100 µM (inactive)
- GI50 (SK-MEL-28): > 100 µM (inactive)
- GI50 (SK-MEL-2): > 100 µM (inactive)
- GI50 (SK-MEL-5): > 100 µM (inactive)
- GI50 (SNB-19): > 100 µM (inactive)
- GI50 (SNB-75): > 100 µM (inactive)
- GI50 (SR): > 100 µM (inactive)
- GI50 (SW-620): > 100 µM (inactive)
- GI50 (T47D): > 100 µM (inactive)
- GI50 (TK-10): > 100 µM (inactive)
- GI50 (U-251): > 100 µM (inactive)
- GI50 (UACC-257): > 100 µM (inactive)
- GI50 (UACC-62): > 100 µM (inactive)
- GI50 (UO-31): > 100 µM (inactive)
